Results from patent publication US20210253575A1, “PYRROLIDINE AMINE COMPOUNDS FOR THE TREATMENT OF AUTOIMMUNE DISEASE” (Hoffmann-La Roche Inc., priority 2018, published 2021).
pIC50: −log10 of the molar value.

What follows are molecules tested against T1, human TLR7 (Homo sapiens, UniProt Q9NYK1) (assay: HEK293-Blue-hTLR-7 cells assay (SEAP reporter, R848 stimulation)). Details: HEK293-Blue-hTLR7 cells, R848 ligand, 20 hrs incubation.
T1 sequence (Q9NYK1 27-1049): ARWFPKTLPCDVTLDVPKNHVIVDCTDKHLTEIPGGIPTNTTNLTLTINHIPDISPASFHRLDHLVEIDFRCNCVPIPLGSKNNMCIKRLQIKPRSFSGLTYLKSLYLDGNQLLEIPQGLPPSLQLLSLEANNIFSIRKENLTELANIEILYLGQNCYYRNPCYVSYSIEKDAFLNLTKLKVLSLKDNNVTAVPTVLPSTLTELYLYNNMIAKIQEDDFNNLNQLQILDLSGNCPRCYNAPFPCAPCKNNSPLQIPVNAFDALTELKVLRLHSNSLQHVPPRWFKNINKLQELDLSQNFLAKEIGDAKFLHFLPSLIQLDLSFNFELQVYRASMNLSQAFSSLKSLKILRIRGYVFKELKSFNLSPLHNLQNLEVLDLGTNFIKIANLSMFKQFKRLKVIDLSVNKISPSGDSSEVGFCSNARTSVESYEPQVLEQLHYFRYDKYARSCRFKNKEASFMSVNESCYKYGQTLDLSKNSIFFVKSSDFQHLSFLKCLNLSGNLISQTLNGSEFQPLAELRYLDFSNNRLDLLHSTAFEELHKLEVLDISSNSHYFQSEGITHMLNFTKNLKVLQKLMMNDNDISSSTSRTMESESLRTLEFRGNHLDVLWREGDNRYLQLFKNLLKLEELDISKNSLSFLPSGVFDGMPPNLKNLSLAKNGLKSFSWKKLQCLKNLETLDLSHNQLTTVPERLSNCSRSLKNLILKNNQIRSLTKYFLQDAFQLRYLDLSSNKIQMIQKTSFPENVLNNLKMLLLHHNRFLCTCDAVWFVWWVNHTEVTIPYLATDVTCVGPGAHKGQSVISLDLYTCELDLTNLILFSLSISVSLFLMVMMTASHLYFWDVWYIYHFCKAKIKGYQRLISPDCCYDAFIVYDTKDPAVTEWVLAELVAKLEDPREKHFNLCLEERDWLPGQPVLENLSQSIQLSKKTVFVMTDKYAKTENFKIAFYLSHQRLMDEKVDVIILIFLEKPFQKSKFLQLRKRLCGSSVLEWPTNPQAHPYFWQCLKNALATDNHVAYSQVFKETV
Format: cell-based
Protocol: The following tests were carried out in order to determine the activity of the compounds of formula (I) in HEK293-Blue-hTLR-7/8/9 cells assay.
HEK293-Blue-hTLR-7 Cells Assay:
A stable HEK293-Blue-hTLR-7 cell line was purchased from InvivoGen (Cat. #: hkb-htlr7, San Diego, Calif., USA). These cells were originally designed for studying the stimulation of human TLR7 by monitoring the activation of NF-κB. A SEAP (secreted embryonic alkaline phosphatase) reporter gene was placed under the control of the IFN-β minimal promoter fused to five NF-κB and AP-1-binding sites. The SEAP was induced by activating NF-κB and AP-1 via stimulating HEK-Blue hTLR7 cells with TLR7 ligands. Therefore the reporter expression was declined by TLR7 antagonist under the stimulation of a ligand, such as R848 (Resiquimod), for incubation of 20 hrs. The cell culture supernatant SEAP reporter activity was determined using QUANTI-Blue™ kit (Cat. #: rep-qb1, Invivogen, San Diego, Ca, USA) at a wavelength of 640 nm, a detection medium that turns purple or blue in the presence of alkaline phosphatase.
HEK293-Blue-hTLR7 cells were incubated at a density of 250,000-450,000 cells/mL in a volume of 170 μL in a 96-well plate in Dulbecco's Modified Eagle's medium (DMEM) containing 4.5 g/L glucose, 50 U/mL penicillin, […], […], 2 mM L-glutamine, 10% (v/v) heat-inactivated fetal bovine serum with addition of 20 μL test compound in a serial dilution in the presence of final DMSO at 1% and 10 μL of 20 uM R848 in above DMEM, perform incubation under 37° C. in a CO2 incubator for 20 hrs. Then 20 μL of the supernatant from each well was incubated with 180 μL Quanti-blue substrate solution at 37° C. for 2 hrs and the absorbance was read at 620-655 nm using a spectrophotometer. The signalling pathway that TLR7 activation leads to downstream NF-κB activation has been widely accepted, and therefore similar reporter assay was modified for evaluating TLR7 antagonist.

Row | SMILES | pIC50
1 | N#Cc1ccc(N2CC(CN3CCC4(CC3)CNCCO4)C3(CC3)C2)c2nccnc12 (stereo not drawn) [Example 49, 8-[7-(1-Oxa-4,9-diazaspiro[5.5]undecan-9-ylmethyl)-5-azaspiro[2.4]heptan-5-yl]quinoxaline-5-carbonitrile] | 6.82
2 | N#Cc1ccc(N2C[C@H](CN3CCC4(CCNCC4)CC3)[C@@H](C(F)(F)F)C2)c2cccnc12 [Example 2, 5-[(3S,4R)-3-(3,9-diazaspiro[5.5]undecan-3-ylmethyl)-4-(trifluoromethyl)pyrrolidin-1-yl]quinoline-8-carbonitrile] | 7.70
3 | C[C@H]1CN(C[C@H]2CN(c3ccc(C#N)c4nccnc34)C[C@@H]2C(F)(F)F)CC[C@H]1N [Example 72, 8-[(3S,4R)-3-[[(3S,4R)-4-amino-3-methyl-1-piperidyl]methyl]-4-(trifluoromethyl)pyrrolidin-1-yl]quinoxaline-5-carbonitrile] | 7.89
4 | CC1(CN)CCCN(C[C@H]2CN(c3ccc(C#N)c4nccnc34)C[C@@H]2C(F)(F)F)C1 (stereo partly drawn) [Example 75, 8-[(3S,4R)-3-[[3-(aminomethyl)-3-methyl-1-piperidyl]methyl]-4-(trifluoromethyl)pyrrolidin-1-yl]quinoxaline-5-carbonitrile] | 7.59
5 | N#Cc1ccc(N2CC(CNC3CCCNCC3)C3(CC3)C2)c2nccnc12 (stereo not drawn) [Example 39, 8-[7-[(Azepan-4-ylamino)methyl]-5-azaspiro[2.4]heptan-5-yl]quinoxaline-5-carbonitrile] | 6.15
6 | CC(C)[C@@H]1CN(c2ccc(C#N)c3ncccc23)C[C@H]1CN1CCC2(CCNC2)C1 (relative stereo) [Example 44, 5-[Trans-3-(2,7-diazaspiro[4.4]nonan-2-ylmethyl)-4-isopropyl-pyrrolidin-1-yl]quinoline-8-carbonitrile] | 6.02
7 | CC1(N)CCN(C[C@H]2CN(c3ccc(C#N)c4nccnc34)C[C@@H]2C(F)(F)F)CC1 [Example 12, 8-[(3S,4R)-3-[(4-amino-4-methyl-1-piperidyl)methyl]-4-(trifluoromethyl)pyrrolidin-1-yl]quinoxaline-5-carbonitrile] | 7.82
8 | FC(F)(F)c1ccc(N2CC(CN3CCNCC3)C3(CC3)C2)c2nccnc12 (stereo not drawn) [Example 20, 5-[7-(Piperazin-1-ylmethyl)-5-azaspiro[2.4]heptan-5-yl]-8-(trifluoromethyl)quinoxaline] | 6.81
9 | C[C@H]1CN(c2ccc(C#N)c3ncccc23)C[C@@H]1CN1CCC2(CCNCC2)CC1 [Example 23, 5-[(3S,4R)-3-(3,9-diazaspiro[5.5]undecan-3-ylmethyl)-4-methyl-pyrrolidin-1-yl]quinoline-8-carbonitrile] | 6.60
10 | N#Cc1ccc(N2CC(CN3CCC4NCC4C3)C3(CC3)C2)c2nccnc12 (stereo not drawn) [Example 66, 8-[7-(3,7-Diazabicyclo[4.2.0]octan-3-ylmethyl)-5-azaspiro[2.4]heptan-5-yl]quinoxaline-5-carbonitrile] | 7.20
11 | C[C@@H]1CN(c2ccc(C(F)(F)F)c3nccnc23)C[C@H]1CN1CCC2(CCNCC2)CC1 (relative stereo) [Example 21, 3-[[Trans-4-methyl-1-[8-(trifluoromethyl)quinoxalin-5-yl]pyrrolidin-3-yl]methyl]-3,9-diazaspiro[5.5]undecane] | 6.72
12 | N#Cc1ccc(N2C[C@H](CN3CCC4(CCNC4)C3)[C@@H](C(F)(F)F)C2)c2nccnc12 (stereo partly drawn) [Example 5, 8-[(3S,4R)-3-(2,7-diazaspiro[4.4]nonan-2-ylmethyl)-4-(trifluoromethyl)pyrrolidin-1-yl]quinoxaline-5-carbonitrile] | 7.44
13 | N#Cc1ccc(N2C[C@@H](CN3CCC4(CCNCC4)CC3)[C@H](C3CC3)C2)c2cccnc12 (relative stereo) [Example 28, 5-[Trans-3-cyclopropyl-4-(3,9-diazaspiro[5.5]undecan-3-ylmethyl)pyrrolidin-1-yl]quinoline-8-carbonitrile] | 6.45
14 | N#Cc1ccc(N2C[C@H](CN3CCC4(CCCNC4)CC3)[C@@H](C(F)(F)F)C2)c2cccnc12 [Example 55, 5-[(3S,4R)-3-(2,9-Diazaspiro[5.5]undecan-9-ylmethyl)-4-(trifluoromethyl)pyrrolidin-1-yl]quinoline-8-carbonitrile] | 6.95
15 | N#Cc1ccc(N2C[C@H](CN3CC4(CC(N)C4)C3)[C@@H](C(F)(F)F)C2)c2cccnc12 [Example 53, 5-[(3S,4R)-3-[(6-Amino-2-azaspiro[3.3]heptan-2-yl)methyl]-4-(trifluoromethyl)pyrrolidin-1-yl]quinoline-8-carbonitrile] | 6.94
16 | N#Cc1ccc(N2CC(CN3CCC4(CCCCN4)CC3)C3(CC3)C2)c2nccnc12 (stereo not drawn) [Example 65, 8-[7-(1,9-Diazaspiro[5.5]undecan-9-ylmethyl)-5-azaspiro[2.4]heptan-5-yl]quinoxaline-5-carbonitrile] | 6.97
17 | N#Cc1ccc(N2C[C@H](CN3CCC(CCN)CC3)[C@@H](C(F)(F)F)C2)c2nccnc12 [Example 79, 8-[(3S,4R)-3-[[4-(2-aminoethyl)-1-piperidyl]methyl]-4-(trifluoromethyl)pyrrolidin-1-yl]quinoxaline-5-carbonitrile] | 7.43
18 | N#Cc1ccc(N2C[C@H](CN3CCC4(CCNCC4)CC3)[C@@H](C(F)(F)F)C2)c2nccnc12 [Example 1, 8-[(3S,4R)-3-(3,9-diazaspiro[5.5]undecan-3-ylmethyl)-4-(trifluoromethyl)pyrrolidin-1-yl]quinoxaline-5-carbonitrile] | 8.30
19 | N#Cc1ccc(N2C[C@H](CN3CCC4(CCNC4)CC3)[C@@H](C(F)(F)F)C2)c2nccnc12 [Example 14, 8-[(3S,4R)-3-(2,8-Diazaspiro[4.5]decan-8-ylmethyl)-4-(trifluoromethyl)pyrrolidin-1-yl]quinoxaline-5-carbonitrile] | 7.37
20 | N#Cc1ccc(N2C[C@H](CN3CCC4(CCNCC4)C3)[C@@H](C(F)(F)F)C2)c2cccnc12 [Example 56, 5-[(3S,4R)-3-(2,8-Diazaspiro[4.5]decan-2-ylmethyl)-4-(trifluoromethyl)pyrrolidin-1-yl]quinoline-8-carbonitrile] | 6.95
21 | N#Cc1ccc(N2CCC(CN3CCC4(CCNCC4)CC3)C2)c2nccnc12 (stereo not drawn) [Example 37, 8-[3-(3,9-Diazaspiro[5.5]undecan-3-ylmethyl)pyrrolidin-1-yl]quinoxaline-5-carbonitrile] | 6.19
22 | N#Cc1ccc(N2CC(CN3CCC4(CCNCC4)C3)C3(CC3)C2)c2nccnc12 (stereo not drawn) [Example 32, 8-[7-(2,8-Diazaspiro[4.5]decan-2-ylmethyl)-5-azaspiro[2.4]heptan-5-yl]quinoxaline-5-carbonitrile] | 6.40
23 | N#Cc1ccc(N2C[C@H](CN3CC4(CCNCC4)C3)[C@@H](C(F)(F)F)C2)c2nccnc12 [Example 48, 8-[(3S,4R)-3-(2,7-diazaspiro[3.5]nonan-2-ylmethyl)-4-(trifluoromethyl)pyrrolidin-1-yl]quinoxaline-5-carbonitrile] | 7.29
24 | N#Cc1ccc(N2CC(CN3CCC4(CCNC4)C3)C3(CC3)C2)c2cccnc12 (stereo not drawn) [Example 43, 5-[7-(2,7-Diazaspiro[4.4]nonan-2-ylmethyl)-5-azaspiro[2.4]heptan-5-yl]quinoline-8-carbonitrile] | 6.05
